From patent US20060252766A1, “Methods using a combination of 3-heteroaryl-2-indolinone and a cyclooxygenase-2 inhibitor for the treatment of neoplasia” (PFIZER INC, priority 2002, published 2006)
“And” between values parts separate entries of the source, which are not always exact repeats. Identical values can stand only once. Like-named read-outs stand apart in the source and are kept apart here.

What was measured:
[1] = system: 1483 human head and neck squamous cell carcinoma (HNSCC) xenograft; assay: HN1483 tumor model: paw tumor volume of treated mice; assay type: in vivo, nude mice; conditions: for Tumor vol. Average: group average; for Paw volume, paw / Tumor vol.: individual mice
[2] = SU-5416/50 mgkd, Day 17 Mar. 16, 2001
[3] = SU-5416/50 mgkd, Day 21 Mar. 20, 2001
[4] = SU-5416/50 mgkd, Day 24 Mar. 23, 2001
[5] = SU-5416/50 mgkd, Day 31 Apr. 2, 2001
[6] = SU-5416/50 mgkd, Day 31 Mar. 30, 2001

## Cc1cc(C)c(C=C2C(=O)Nc3ccccc32)[nH]1 [SU5416, 3-[(2,4-Dimethylpyrrol-5-yl)methylene]-2-indolinone]
[1]; SU5416 25 mg/kg/day s.c. group, Day 7 Mar. 3, 2001 (before start of dosing)
  Tumor vol. Average: 0.14
[1]; SU5416 25 mg/kg/day s.c. group, Day 7 Mar. 3, 2001 (before start of dosing), 25 mg/kg/day
  Paw volume, paw: 0.26 (3×) and 0.28 and 0.27 (2×) and 0.24 and 0.23
[1]; SU5416 25 mg/kg/day s.c. group, Day 7 Mar. 3, 2001 (before start of dosing), paw minus 0.10, 25 mg/kg/day
  Tumor vol.: 0.16 (2×) and 0.17 (3×) and 0.18 and 0.14 and 0.13
[1]; SU5416 25 mg/kg/day s.c., Day 14 Mar. 13, 2001
  Tumor vol. Average: 0.18
[1]; SU5416 25 mg/kg/day s.c., Day 14 Mar. 13, 2001, 25 mg/kg/day
  Paw volume, paw: 0.29 (3×) and 0.28 (2×) and 0.27 and 0.26 and 0.24
[1]; SU5416 25 mg/kg/day s.c., Day 14 Mar. 13, 2001, paw minus BKG. 0.10, 25 mg/kg/day
  Tumor vol.: 0.19 (3×) and 0.18 and 0.17 and 0.16 (2×) and 0.14
[1]; SU5416 25 mg/kg/day s.c., Day 17 Mar. 16, 2001
  Tumor vol. Average: 0.21
[1]; SU5416 25 mg/kg/day s.c., Day 17 Mar. 16, 2001, 25 mg/kg/day
  Paw volume, paw: 0.37 (2×) and 0.33 and 0.29 and 0.28 (2×) and 0.36 and 0.23
[1]; SU5416 25 mg/kg/day s.c., Day 17 Mar. 16, 2001, paw minus BKG. 0.10, 25 mg/kg/day
  Tumor vol.: 0.27 (2×) and 0.23 and 0.19 and 0.18 (2×) and 0.26 and 0.13
[1]; SU5416 25 mg/kg/day s.c., Day 21 Mar. 20, 2001
  Tumor vol. Average: 0.34
[1]; SU5416 25 mg/kg/day s.c., Day 21 Mar. 20, 2001, 25 mg/kg/day
  Paw volume, paw: 0.55 and 0.49 and 0.37 and 0.34 and 0.4 and 0.58 and 0.56 and 0.24
[1]; SU5416 25 mg/kg/day s.c., Day 21 Mar. 20, 2001, paw minus BKG. 0.10, 25 mg/kg/day
  Tumor vol.: 0.45 and 0.39 and 0.27 and 0.24 and 0.30 and 0.48 and 0.46 and 0.14
[1]; SU5416 25 mg/kg/day s.c., Day 24 Mar. 23, 2001
  Tumor vol. Average: 0.39
[1]; SU5416 25 mg/kg/day s.c., Day 24 Mar. 23, 2001, 25 mg/kg/day
  Paw volume, paw: 0.59 and 0.8 and 0.37 and 0.4 and 0.49 and 0.65 and 0.61 and 0.22
[1]; SU5416 25 mg/kg/day s.c., Day 24 Mar. 23, 2001, paw minus BKG. 0.10, 25 mg/kg/day
  Tumor vol.: 0.49 and 0.50 and 0.27 and 0.30 (2×) and 0.55 and 0.51 and 0.12
[1]; SU5416 25 mg/kg/day s.c., Day 31 Apr. 2, 2001
  Tumor vol. Average: 0.87
[1]; SU5416 25 mg/kg/day s.c., Day 31 Apr. 2, 2001, 25 mg/kg/day
  Paw volume, paw: 0.82 and 0.79 and 0.57 and 0.6 and 0.66 and 0.98 and 0.75 and 0.21
[1]; SU5416 25 mg/kg/day s.c., Day 31 Apr. 2, 2001, paw minus BKG. 0.10, 25 mg/kg/day
  Tumor vol.: 0.72 and 0.69 and 0.47 and 0.50 and 0.56 and 0.68 and 0.65 and 0.11
[1]; SU5416 25 mg/kg/day s.c., Day 31 Mar. 30, 2001
  Tumor vol. Average: 0.56
[1]; SU5416 25 mg/kg/day s.c., Day 31 Mar. 30, 2001, 25 mg/kg/day
  Paw volume, paw: 0.84 and 0.5 and 0.71 and 0.23 and 0.73 and 0.81 and 0.54 and 0.56
[1]; SU5416 25 mg/kg/day s.c., Day 31 Mar. 30, 2001, paw minus BKG. 0.10, 25 mg/kg/day
  Tumor vol.: 0.74 and 0.70 and 0.61 and 0.13 and 0.63 and 0.71 and 0.44 and 0.46
[1]; SU5416 25 mg/kg/day s.c., Start dosing Day 10 Mar. 9, 2001
  Tumor vol. Average: 0.16
[1]; SU5416 25 mg/kg/day s.c., Start dosing Day 10 Mar. 9, 2001, 25 mg/kg/day
  Paw volume, paw: 0.3 and 0.25 and 0.23 and 0.26 and 0.27 and 0.29 and 0.24 (2×)
[1]; SU5416 25 mg/kg/day s.c., Start dosing Day 10 Mar. 9, 2001, paw minus BKG. 0.10, 25 mg/kg/day
  Tumor vol.: 0.20 and 0.15 and 0.13 and 0.10 and 0.17 and 0.19 and 0.14 (2×)
[1]; SU-5416/50 mgkd, Day 14 Mar. 13, 2001
  Paw volume, paw: 0.29 and 0.22 and 0.32 and 0.27 (2×) and 0.24 and 0.26 and 0.21
[1]; [2]
  Tumor vol. Average: 0.19
  Paw volume, paw: 0.24 and 0.27 and 0.2 and 0.3 and 0.32 and 0.22 and 0.39 and 0.34
[1]; SU-5416/50 mgkd, Day 17 Mar. 16, 2001, paw minus BKG. 0.10
  Tumor vol.: 0.14 and 0.17 and 0.10 and 0.20 and 0.22 and 0.12 and 0.29 and 0.24
[1]; [3]
  Tumor vol. Average: 0.27
  Paw volume, paw: 0.27 and 0.36 and 0.19 and 0.31 and 0.44 and 0.22 and 0.63 and 0.48
[1]; SU-5416/50 mgkd, Day 21 Mar. 20, 2001, paw minus BKG. 0.10
  Tumor vol.: 0.17 and 0.28 and 0.09 and 0.21 and 0.34 and 0.12 and 0.53 and 0.38
[1]; [4]
  Tumor vol. Average: 0.30
  Paw volume, paw: 0.25 and 0.46 and 0.19 and 0.28
[1]; SU-5416/50 mgkd, Day 24 Mar. 23, 2001, paw minus BKG. 0.10
  Tumor vol.: 0.15 and 0.36 and 0.09 and 0.18 and 0.42 and 0.08 and 0.64
[1]; [5]
  Tumor vol. Average: 0.34
  Paw volume, paw: 0.18 and 0.53 and 0.15 and 0.25
[1]; SU-5416/50 mgkd, Day 31 Apr. 2, 2001, paw minus BKG. 0.10
  Tumor vol.: 0.08 (2×) and 0.43 and 0.05 and 0.15 and 0.59
[1]; [6]
  Tumor vol. Average: 0.36
  Paw volume, paw: 0.24 and 0.6 and 0.18 and 0.21
[1]; SU-5416/50 mgkd, Day 31 Mar. 30, 2001, paw minus BKG. 0.10
  Tumor vol.: 0.14 (2×) and 0.50 and 0.08 and 0.11 and 0.73 and 0.62
Group 2, SU5416 25 mg/kg/day s.c., Day 0 (day of injection), 25 mg/kg/day
  body wt, individual mouse: 31.93
Group 2, SU5416 25 mg/kg/day s.c., Day 7, 25 mg/kg/day
  body wt, individual mouse: 32.41 and 25.96
Group 2, SU5416 25 mg/kg/day s.c., Day 10, 25 mg/kg/day
  body wt, individual mouse: 32.36 and 25.96 and 31
Group 2, SU5416 25 mg/kg/day s.c., Day 14, 25 mg/kg/day
  body wt, individual mouse: 28.02 and 32.11 and 23.91 and 21.18
Group 2, SU5416 25 mg/kg/day s.c., Day 17, 25 mg/kg/day
  body wt, individual mouse: 28.98 and 18.97
Group 2, SU5416 25 mg/kg/day s.c., Day 21, 25 mg/kg/day
  body wt, individual mouse: 22.29 and 18.32
Group 2, SU5416 25 mg/kg/day s.c., Day 24, 25 mg/kg/day
  body wt, individual mouse: 24.83 and 21.3 and 22.29 and 22.93 and 18.15 and 29.02
Group 2, SU5416 25 mg/kg/day s.c., Day 31, 25 mg/kg/day
  body wt, individual mouse: 23.86 and 17.88 and 20.51
Group 2, SU5416 25 mg/kg/day s.c., Day 35, 25 mg/kg/day
  body wt, individual mouse: 21.74 and 22.95 and 18.42
Group 5, SU-5416 50 mpkd, Day 0 (day of injection)
  body wt, individual mouse: 26.04
Group 5, SU-5416 50 mpkd, Day 7
  body wt, individual mouse: 29.04
Group 5, SU-5416 50 mpkd, Day 21
  body wt, individual mouse: 25.96 and 24.96
Group 5, SU-5416 50 mpkd, Day 24
  body wt, individual mouse: 22.85 and 24.01 and 24.79
Group 5, SU-5416 50 mpkd, Day 31
  body wt, individual mouse: 26.03
